Columns and labels:
[1] = tested on: all mosquito P450s of the panel except CYP6Z2 and CYP6P2 (CYP6M2, CYP6P3, CYP6P4, CYP9J5); assay: in vitro; settings: Anopheles gambiae
[2] = tested on: all mosquito P450s of the panel apart from CYP6Z2 (CYP6M2, CYP6P2, CYP6P3, CYP6P4, CYP9J5); assay: in vitro; settings: Anopheles gambiae

Row | Compound | IC50 ([1]; pH 7.4, IC50 of DEF activity) | IC50 ([1]; pH 7.4, category of inhibition of DEF metabolism) | IC50 ([2]; pH 7.4, IC50 of DEF activity) | IC50 ([2]; pH 7.4, category of inhibition of DEF activity)
1 | CC(COc1ccc(Oc2ccccc2)cc1)Oc1ccccn1 (stereo not shown) [PPF, pyriproxyfen] | > 10 µM | > 10 µM | – | –
2 | CC1(C)C(C=C(Cl)Cl)C1C(=O)OCc1cccc(Oc2ccccc2)c1 (mixture of isomers) [Permethrin, 3-phenoxybenzyl (1R,S)-cis,trans-3-(2,2-dichlorovinyl)-2,2-dimethylcyclopropanecarboxylate] | – | – | 1 to 10 µM | 1 to 10 µM

Reference: paper PMC6399515 (Insect Biochemistry and Molecular Biology, 2016)
